Reference: US20150105252A1, “SUBSTITUTED PYRAZOLES AS HERBICIDES” (E I DU PONT DE NEMOURS AND COMPANY, priority 2013, published 2015)

Assays:
crabgrass, large [1] = assay: Test A preemergence; assay type: in vivo, Digitaria sanguinalis; settings: preemergence; for Crabgrass, Large plant response rating (0 to 100 scale): visual injury approx. 10 days after treatment
Summary of the method: (§1)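 Greenhouse test in loam soil/sand blend; compounds formulated in non-phytotoxic solvent with surfactant, applied as preemergence directed soil spray or postemergence to plants 2–10 cm tall at one- to two-leaf stage. Injury rated visually versus untreated controls after approximately 10 days on a 0 (no effect) to 100 (complete control) scale.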

morningglory [2] = assay: Test A preemergence; assay type: in vivo, Ipomoea spp.; settings: preemergence; for Morningglory plant response rating (0 to 100 scale): visual injury approx. 10 days after treatment
Summary of the method: as §1

velvetleaf [3] = assay: Test A preemergence; assay type: in vivo, Abutilon theophrasti; settings: preemergence; for Velvetleaf plant response rating (0 to 100 scale): visual injury approx. 10 days after treatment
Summary of the method: as §1

wheat = assay: Test A preemergence; assay type: in vivo, Triticum aestivum; settings: preemergence; for Wheat plant response rating (0 to 100 scale): visual injury approx. 10 days after treatment
Summary of the method: as §1

crabgrass, large [4] = assay: Test A postemergence; assay type: in vivo, Digitaria sanguinalis
Summary of the method: as §1

foxtail, giant = assay: Test A postemergence; assay type: in vivo, Setaria faberii
Summary of the method: as §1

morningglory [5] = assay: Test A postemergence; assay type: in vivo, Ipomoea spp.
Summary of the method: as §1

velvetleaf [6] = assay: Test A postemergence; assay type: in vivo, Abutilon theophrasti
Summary of the method: as §1

sedge, umbrella = assay: Test B flood; assay type: in vivo, Cyperus difformis; settings: 250 g ai/ha, visual rating on 0 to 100 scale (0 no effect, 100 complete control), 13 to 15 days
Summary of the method: (§2)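 Two-leaf-stage plants, pots flooded (3 cm above soil) and treated through the water, which stayed at that depth. After 13–15 days in greenhouse conditions, visual assessment versus controls: 0 is no effect, 100 complete control, dash means no result.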

barnyardgrass = assay: Test B flood; assay type: in vivo, Echinochloa crus-galli; settings: 250 g ai/ha, visual rating on 0 to 100 scale (0 no effect, 100 complete control), 13 to 15 days
Summary of the method: as §2

ryegrass, Italian = assay: Test C preemergence; assay type: in vivo, Lolium multiflorum; settings: preemergence; for Plant response rating, Ryegrass, Italian: 125 g ai/ha, scale 0 to 100, 0 = no effect, 100 = complete control
Summary of the method: (§3)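 In this greenhouse assay, seeded soil (loam plus sand) or emerged seedlings in peat-vermiculite medium were treated with formulated compound. Roughly two weeks later (13–15 days), each species was scored visually relative to controls, from 0 for no effect to 100 for complete control.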

galium = assay: Test C preemergence; assay type: in vivo, Galium aparine; settings: preemergence; for Plant response rating, Galium: 125 g ai/ha, scale 0 to 100, 0 = no effect, 100 = complete control
Summary of the method: as §3

nutsedge, yellow = assay: Test C preemergence; assay type: in vivo, Cyperus esculentus; settings: preemergence; for Plant response rating, Nutsedge, Yellow: 125 g ai/ha, scale 0 to 100, 0 = no effect, 100 = complete control
Summary of the method: as §3

soybean = assay: Test C preemergence; assay type: in vivo, Glycine max; settings: preemergence; for Plant response rating, Soybean: 125 g ai/ha, scale 0 to 100, 0 = no effect, 100 = complete control
Summary of the method: as §3

oilseed rape = assay: Test C preemergence; assay type: in vivo, Brassica napus; settings: preemergence; for Plant response rating, Oilseed Rape: 125 g ai/ha, scale 0 to 100, 0 = no effect, 100 = complete control
Summary of the method: as §3

[7] = 125 g ai/ha, visual injury, 0 to 100 scale, approx. 10 days
[8] = 500 g ai/ha, visual injury after approx. 10 days, 0 to 100 scale (0 no effect, 100 complete control)
[9] = Postemergence, 500 g ai/ha, 0 to 100 scale (0 no effect, 100 complete control)
[10] = postemergence, 125 g ai/ha, about 10 days, visual rating on 0 to 100 scale (0 no effect, 100 complete control)
[11] = 31 g ai/ha, visual rating, scale 0 to 100 (0 no effect, 100 complete control), 13 to 15 days
[12] = 62 g ai/ha, scale 0 to 100 (0 no effect, 100 complete control), 13 to 15 days
[13] = 250 g ai/ha, scale 0 to 100, 0 is no effect, 100 is complete control

SMILES | Crabgrass, Large plant response rating (crabgrass, large [1]; [8]) | Morningglory plant response rating (morningglory [2]; [8]) | Velvetleaf plant response rating (velvetleaf [3]; [8]) | Wheat plant response rating (wheat; [8]) | Crabgrass, Large plant response rating (crabgrass, large [4]; [9]) | Crabgrass, Large plant response rating (crabgrass, large [4]; [10]) | Foxtail, Giant plant response rating (foxtail, giant; [9]) | Foxtail, Giant plant response rating (foxtail, giant; [10]) | Morningglory plant response rating (morningglory [5]; [9]) | Morningglory plant response rating (morningglory [5]; [10]) | Velvetleaf plant response rating (velvetleaf [6]; [9]) | Velvetleaf plant response rating (velvetleaf [6]; [10]) | Plant response rating, Sedge, Umbrella (sedge, umbrella) | Plant response rating, Barnyardgrass (barnyardgrass) | Ryegrass, Italian plant response rating (ryegrass, Italian; [11]) | Ryegrass, Italian plant response rating (ryegrass, Italian; [12]) | Plant response rating, Ryegrass, Italian (ryegrass, Italian; 13 to 15 days) | Ryegrass, Italian plant response rating (ryegrass, Italian; [13]) | Galium plant response rating (galium; [11]) | Galium plant response rating (galium; [12]) | other results
CCc1cc(C(=O)NC(C)C)nn1Cc1ccnc(C(F)(F)F)c1 [Compound 139] | 100 | 100 | 100 | 100 | 90 | 90 | 90 | 90 | 100 | 60 | 90 | 40 | 100 | 60 | 10 | 60 | 90 | 90 | 30 | 80 | Crabgrass, Large plant response rating (crabgrass, large [1]; [7]): 100; Morningglory plant response rating (morningglory [2]; [7]): 40; Velvetleaf plant response rating (velvetleaf [3]; [7]): 30; Wheat plant response rating (wheat; [7]): 50; Plant response rating, Galium (galium; 13 to 15 days): 100; Galium plant response rating (galium; [13]): 100; Nutsedge, Yellow plant response rating (nutsedge, yellow; [11]): 15; Nutsedge, Yellow plant response rating (nutsedge, yellow; [12]): 10; Plant response rating, Nutsedge, Yellow (nutsedge, yellow; 13 to 15 days): 35; Nutsedge, Yellow plant response rating (nutsedge, yellow; [13]): 50; Soybean plant response rating (soybean; [11]): 5; Soybean plant response rating (soybean; [12]): 5; Plant response rating, Soybean (soybean; 13 to 15 days): 30; Soybean plant response rating (soybean; [13]): 60; Oilseed Rape plant response rating (oilseed rape; [11]): 50; Oilseed Rape plant response rating (oilseed rape; [12]): 100; Plant response rating, Oilseed Rape (oilseed rape; 13 to 15 days): 100; Oilseed Rape plant response rating (oilseed rape; [13]): 100
O=C(NCC(F)(F)F)c1cc(CCCl)n(Cc2ccnc(C(F)(F)F)c2)n1 [Compound 143] | 100 | 100 | 100 | 100 | 90 | 90 | 90 | 90 | 100 | 40 | 90 | 80 | 95 | 45 | 35 | 80 | 90 | 90 | 90 | 100 | Crabgrass, Large plant response rating (crabgrass, large [1]; [7]): 100; Morningglory plant response rating (morningglory [2]; [7]): 100; Velvetleaf plant response rating (velvetleaf [3]; [7]): 50; Wheat plant response rating (wheat; [7]): 70; Plant response rating, Galium (galium; 13 to 15 days): 95; Galium plant response rating (galium; [13]): 100; Nutsedge, Yellow plant response rating (nutsedge, yellow; [11]): 30; Nutsedge, Yellow plant response rating (nutsedge, yellow; [12]): 40; Plant response rating, Nutsedge, Yellow (nutsedge, yellow; 13 to 15 days): 80; Nutsedge, Yellow plant response rating (nutsedge, yellow; [13]): 90; Soybean plant response rating (soybean; [11]): 35; Soybean plant response rating (soybean; [12]): 85; Plant response rating, Soybean (soybean; 13 to 15 days): 98; Soybean plant response rating (soybean; [13]): 98; Oilseed Rape plant response rating (oilseed rape; [11]): 100; Oilseed Rape plant response rating (oilseed rape; [12]): 100; Plant response rating, Oilseed Rape (oilseed rape; 13 to 15 days): 95; Oilseed Rape plant response rating (oilseed rape; [13]): 100
CCCNC(=O)c1cc(CCCl)n(Cc2ccnc(C(F)(F)F)c2)n1 [Compound 145] | 100 | 100 | 80 | 100 | 90 | 90 | 90 | 90 | 100 | 80 | 100 | 70 | 95 | 45 | 5 | 45 | 85 | 90 | 90 | 95 | Crabgrass, Large plant response rating (0 to 100 scale) (crabgrass, large [1]; 125 g ai/ha): 100; Morningglory plant response rating (0 to 100 scale) (morningglory [2]; 125 g ai/ha): 100; Velvetleaf plant response rating (0 to 100 scale) (velvetleaf [3]; 125 g ai/ha): 50; Wheat plant response rating (0 to 100 scale) (wheat; 125 g ai/ha): 40; Plant response rating, Galium (galium; 13 to 15 days): 95; Galium plant response rating (galium; [13]): 100; Nutsedge, Yellow plant response rating (nutsedge, yellow; [11]): 10; Nutsedge, Yellow plant response rating (nutsedge, yellow; [12]): 75; Plant response rating, Nutsedge, Yellow (nutsedge, yellow; 13 to 15 days): 60; Nutsedge, Yellow plant response rating (nutsedge, yellow; [13]): 90; Soybean plant response rating (soybean; [11]): 20; Soybean plant response rating (soybean; [12]): 70; Plant response rating, Soybean (soybean; 13 to 15 days): 85; Soybean plant response rating (soybean; [13]): 95; Oilseed Rape plant response rating (oilseed rape; [11]): 60; Oilseed Rape plant response rating (oilseed rape; [12]): 98; Plant response rating, Oilseed Rape (oilseed rape; 13 to 15 days): 100; Oilseed Rape plant response rating (oilseed rape; [13]): 98
CCNC(=O)c1cc(CCCl)n(Cc2ccnc(C(F)(F)F)c2)n1 [Compound 179] | 100 | 100 | 100 | 100 | 90 | 90 | 90 | 90 | 100 | 60 | 100 | 70 | 80 | 25 | 5 | 80 | 90 | 90 | 98 | 100 | Crabgrass, Large plant response rating (0 to 100 scale) (crabgrass, large [1]; 125 g ai/ha): 100; Morningglory plant response rating (0 to 100 scale) (morningglory [2]; 125 g ai/ha): 80; Velvetleaf plant response rating (0 to 100 scale) (velvetleaf [3]; 125 g ai/ha): 50; Wheat plant response rating (0 to 100 scale) (wheat; 125 g ai/ha): 10; Plant response rating, Galium (galium; 13 to 15 days): 100; Galium plant response rating (galium; [13]): 100; Nutsedge, Yellow plant response rating (nutsedge, yellow; [11]): 10; Nutsedge, Yellow plant response rating (nutsedge, yellow; [12]): 15; Plant response rating, Nutsedge, Yellow (nutsedge, yellow; 13 to 15 days): 75; Nutsedge, Yellow plant response rating (nutsedge, yellow; [13]): 85; Soybean plant response rating (soybean; [11]): 35; Soybean plant response rating (soybean; [12]): 65; Plant response rating, Soybean (soybean; 13 to 15 days): 85; Soybean plant response rating (soybean; [13]): 98; Oilseed Rape plant response rating (oilseed rape; [11]): 60; Oilseed Rape plant response rating (oilseed rape; [12]): 85; Plant response rating, Oilseed Rape (oilseed rape; 13 to 15 days): 100; Oilseed Rape plant response rating (oilseed rape; [13]): 100
